According to US20220259164A1, “USE OF AMINOTHIOL COMPOUNDS AS CEREBRAL NERVE OR HEART PROTECTIVE AGENT” (SHANGHAI KECHOW PHARMA, INC., priority 2019, published 2022):
Where “and” joins values, the source holds several entries; their conditions need not be identical. Identical values can stand only once. Where a SMILES comes first, the peptide text is derived from it. [ ]: non-standard residue; d: D form. NMeC = CN[C@@H](CS)C(=O)O

Tests used:
[1] = tested on: SD rat cerebral ischemia reperfusion injury model (MCAO); assay: TTC staining and cerebral infarction area in rat ischemic stroke model (MCAO); assay type: in vivo; settings: for Cerebral infarction area: individual rats
Experimental: Healthy male SPF grade SD rats (body weight 250-300 g) were selected. (1) The rats were anesthetized, the skin on the neck was prepared, and the body temperature was maintained at 37±0.5° C. (2) A midline neck incision was made to expose the right common carotid artery, internal carotid artery and external carotid artery. A 6-0 silk thread was used to ligate the distal end of the external carotid artery at 4 mm from the bifurcation of the common carotid artery, another 6-0 silk thread was inserted at the external carotid artery, and a slipknot was tied near the bifurcation of the common carotid artery. (3) An arterial clamp was used to clamp the common carotid artery. A small opening was cut on the external carotid artery at 3 mm from the bifurcation of the common carotid artery, and a 0.33 mm diameter nylon thread with a treated head end was inserted through the small opening, entered the internal carotid artery, and was inserted inward to the middle cerebral artery, wherein the insertion depth of the nylon thread was about 16±1 mm from the bifurcation of the common carotid artery. (4) The thread embolism was removed 90 min after ischemia, the proximal end of the external artery was ligated with a 6-0 silk thread, the neck wound was sutured with a 3-0 silk thread, the wound was disinfected with povidone iodine, the rats were placed on a heating pad, and after being awake, they were placed in a constant temperature rearing box for rearing. […] After the rats were anesthetized, the brain tissues were taken from the rats, placed in a refrigerator and frozen at -20° C. for 30 min. 1% TTC (W/V) was prepared with PBS and placed in a water bath at 37° C. until the TTC was dissolved, and the frozen brain tissue was sliced, placed in 10 ml of the TTC solution and incubated at 37° C. for 10 min. The brain slices were turned from time to time to make the tissue evenly stained. Normal brain tissue was bright red after staining, whereas the infarction region was pale white in color or light white in a black and white image. In addition, a software was used to measure and statistically analyze the infarction area. In a manner same as in Example 1, experimental animals were selected, except that the experiment was divided into seven groups (i.e., groups […], and G, among which groups C, D, and E were given different dosages of administration from Example 1, group F was given edaravone, and group G was given amifostine).

[2] = tested on: rat myocardial infarction model (coronary ligation 30 min, reperfusion); assay: Myocardial infarction model: myocardial infarction range (TTC staining); assay type: in vivo; settings: for Infarction range (%): x ± s, n = 10; for Improvement rate (%) of myocardial infarction range: compared with model group
Experimental: 1. The rats were grouped and administered according to the following methods (2) Compound B (i.v.) at 100 mg/kg (3) Compound A (i.v.) at 100 mg/kg (4) Compound A (oral) at 500 mg/kg (5) Isosorbide mononitrate injection (i.v.) at 1 mg/kg (equivalent to clinical equivalent dose). There were 10 rats in each group, and the rats were administered intravenously immediately after 30 min of ischemia and reperfusion, i.v. 10% 1 min+i.v. drip 90% 30 min. The administration volume was 2 ml/rat. Compound A (oral) at 500 mg/kg was administered intragastrically 2 h after reperfusion when the animal was awake, and the administration volume was 10 ml/kg. Note: Compounds A and B used in this example were in the form of hydrochloride salts thereof. Given intraperitoneal injection of 3% sodium pentobarbital at 60 mg/kg for general anesthesia, the rats were fixed on an operating table in the supine position. The surgical field of the anterolateral chest was depilated and routinely disinfected. The skin and muscular layer were cut open, purse-string suture was performed on the muscular layer, the chest was opened on the left at the fourth intercostal space, and the heart was pulled out with a ring-shaped retractor. At the position of the anterior descending coronary artery 3-4 mm below the left atrial appendage, a 6/0 damage-free silk thread was threaded, and a nylon thread with a diameter of 1.6 mm was juxtaposed and ligated together with the anterior descending coronary artery, while the other end was left outside the body for later use. The heart was placed back into the chest cavity, the air in the chest cavity was emptied, and the chest cavity was closed. 30 min after ligation, the nylon thread was carefully removed for reperfusion. Compared with the normal lead II electrocardiogram (ECG-II), ST segment elevation in ECG-II by 0.1 mV or more 30 min after coronary artery ligation was regarded as successful ischemia.

[3] = tested on: bleomycin (BLM)-induced scleroderma mouse model; assay: Dermal fibrosis in bleomycin (BLM)-induced scleroderma mouse model (H-E staining); assay type: in vivo, mice; settings: compound A (hydrochloride) 600 mg/kg/d by gavage or compound B (trifluoroacetate) 200 mg/kg/d i.p., 28 days with BLM; compared with BLM model group
Excerpt: Materials: C57BL/6 female mice, weighing 20-25 g, were purchased from Shanghai SLAC Laboratory Animal Co., Ltd. Using a random number table method, 24 mice were divided into a blank control group (1), a scleroderma model group (2), a scleroderma+compound A treatment group (3), and a scleroderma+compound B treatment group (4), with 6 mice in each group. Bleomycin (BLM) was purchased from Sigma. An H-E staining kit was purchased from Beijing Solarbio Science & Technology Co., Ltd. Compound A used in this example was in the form of a hydrochloride thereof, and compound B was in the form of a trifluoroacetate thereof.
Method: The intended injection site (area 1 cm^2) of the mice was shaved using an electric shaver. The mice in groups (1) and (2) were intraperitoneally injected with PBS, the mice in group (3) were given compound A (600 mg/kg/d, dissolved in PBS) by gavage, and the mice in group (4) were intraperitoneally injected with compound B (200 mg/kg/d, dissolved in PBS). Immediately thereafter, the mice in group (1) were injected with PBS subcutaneously on the back, and the mice in groups (2) and (4) were injected with BLM (1 mg/ml, dissolved in PBS) subcutaneously on the back; and 15 min later, the mice in group (3) were injected with BLM (1 mg/ml, dissolved in PBS) subcutaneously on the back. After 28 days of continuous administration once a day, the animals were sacrificed on day 29 by cervical dislocation. Conventional iodine tincture was used to disinfect the back skin of the mice, and a local diseased skin tissue was surgically cut, fixed in 4% paraformaldehyde, embedded in paraffin, sectioned, and analyzed by H-E staining.

[4] = Example 2 group D: compound A (trifluoroacetate) 400 mg/kg p.o. 2.5 h before reperfusion, 400 mg/kg
[5] = Example 2 group E: compound A (trifluoroacetate) 800 mg/kg p.o. 2.5 h before reperfusion, 800 mg/kg
[6] = Example 2 group C: compound B (trifluoroacetate) 100 mg/kg i.p. 5 min before reperfusion, 100 mg/kg

SMILES: CNC(=O)[C@H](CS)NC(=O)[C@H](CS)NC [Compound A, (R)-3-mercapto-N—((R)-3-mercapto-1-(methylamino)-1-oxoprop-2-yl)-2-(methylamino)propionamide] (H-[NMeC]-Cys-NHMe)
- % Improvement of cerebral infarction area ([1]; Example 1 group E: compound A (trifluoroacetate) 1600 mg/kg p.o. 2.5 h before reperfusion, 1600 mg/kg): 83.9%
- Cerebral infarction area ([1]; Example 1 group E: compound A (trifluoroacetate) 1600 mg/kg p.o. 2.5 h before reperfusion, 24 h, 1600 mg/kg): 40.19 mm^3 and 26.33 mm^3 and 9.18 mm^3
- % Improvement of cerebral infarction area [1, 4]: 72.97%
- Cerebral infarction area [1, 4]: 25.16 mm^3 and 11.23 mm^3 and 20.59 mm^3 and 15.48 mm^3 and 38.04 mm^3 and 82.75 mm^3
- % Improvement of cerebral infarction area [1, 5]: 87.32%
- Cerebral infarction area [1, 5]: 14.23 mm^3 and 0 mm^3 (2×) and 16.93 mm^3 and 12.31 mm^3 and 47.18 mm^3
- Infarction range (%) ([2]; compound A (hydrochloride) i.v. 100 mg/kg after 30 min ischemia and reperfusion): 30.5 ± 11 %
- Improvement rate (%) of myocardial infarction range ([2]; compound A (hydrochloride) i.v. 100 mg/kg): 24.5%
- Infarction range (%) ([2]; compound A (hydrochloride) oral 500 mg/kg 2 h after reperfusion): 28.9 ± 12.2 %
- Improvement rate (%) of myocardial infarction range ([2]; compound A (hydrochloride) oral 500 mg/kg): 28.5%
- Collagen in the dermis and fat layer (H-E staining) [3]: the collagen thickness in the dermis was significantly reduced and the fat layer was significantly thickened
- Thickness of the dermis in the skin lesion area [3]: could better reduce the thickness of the dermis at the skin lesion site

SMILES: CNC(=O)[C@H](CS)NC(=O)[C@H](CS)NC(=O)[C@H](CS)NC [Compound B, (R)-3-mercapto-N—((R)-3-mercapto-1-(((R)-3-mercapto-1-(methylamino)-1-oxoprop-2-yl)amino)-1-oxoprop-2-yl)-2-(methylamino)propionamide] (H-[NMeC]-Cys-Cys-NHMe)
- % Improvement of cerebral infarction area ([1]; Example 1 group C: compound B (trifluoroacetate) 200 mg/kg i.p. 5 min before reperfusion, 200 mg/kg): 62.5%
- Cerebral infarction area ([1]; Example 1 group C: compound B (trifluoroacetate) 200 mg/kg i.p. 5 min before reperfusion, 24 h, 200 mg/kg): 67.44 mm^3 and 67.69 mm^3 and 32.84 mm^3 and 23.4 mm^3 and 105.9 mm^3
- % Improvement of cerebral infarction area ([1]; Example 1 group D: compound B (trifluoroacetate) 200 mg/kg i.p. during ischemia and 200 mg/kg i.p. 5 min before reperfusion): 44.4%
- Cerebral infarction area ([1]; Example 1 group D: compound B (trifluoroacetate) 200 mg/kg i.p. during ischemia and 200 mg/kg i.p. 5 min before reperfusion, 24 h): 67.53 mm^3 and 105.5 mm^3
- % Improvement of cerebral infarction area [1, 6]: 59.5%
- Cerebral infarction area [1, 6]: 0 mm^3 and 32.568 mm^3 and 45.956 mm^3 and 21.529 mm^3 and 104.008 mm^3 and 85.208 mm^3
- Infarction range (%) ([2]; compound B (hydrochloride) i.v. 100 mg/kg after 30 min ischemia and reperfusion): 30.2 ± 8.2 %
- Improvement rate (%) of myocardial infarction range ([2]; compound B (hydrochloride) i.v. 100 mg/kg): 25.2%
- Collagen in the dermis and fat layer (H-E staining) [3]: collagen proliferation in the dermis in the compound B treatment group was improved
- Thickness of the dermis in the skin lesion area [3]: reduced (p<0.01)
